This note sets out measurements from US20260028365A1 (BIOGEN MA INC., priority 2022, published 2026).

Read-outs that look alike come from different tables or passages of the source.

One assay concerns the target Tyk2 (Homo sapiens (Human), UniProt P29597). Kind of assay: pSTAT4 Cell Assay (MSD, NK92 cells). In kind it is cell-based.
For another assay, the target named is JH2 domain of human Tyk2 (Homo sapiens (Human), UniProt P29597). The assay can be described thus: JH2 Biochemical Assay (TR-FRET probe displacement). In kind it is binding.
JH2 domain of human Tyk2, sequence (P29597 575-876): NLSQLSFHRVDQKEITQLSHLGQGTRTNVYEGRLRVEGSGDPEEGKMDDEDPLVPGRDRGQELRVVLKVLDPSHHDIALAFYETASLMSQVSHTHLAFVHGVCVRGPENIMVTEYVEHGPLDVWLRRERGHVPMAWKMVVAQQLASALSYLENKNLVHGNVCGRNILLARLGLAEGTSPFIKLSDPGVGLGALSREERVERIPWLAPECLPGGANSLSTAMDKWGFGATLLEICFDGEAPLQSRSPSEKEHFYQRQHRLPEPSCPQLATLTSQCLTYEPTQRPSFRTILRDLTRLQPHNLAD
Setting [1] is: JH2 domain of human Tyk2, TR-FRET probe displacement.
Where [2] appears, read: TR-FRET probe displacement, JH2 domain of human Tyk2.
Setting [3] is: TR-FRET probe displacement, JH2 domain.

Tyk2, sequence (P29597 whole entry, the tested form may be a part): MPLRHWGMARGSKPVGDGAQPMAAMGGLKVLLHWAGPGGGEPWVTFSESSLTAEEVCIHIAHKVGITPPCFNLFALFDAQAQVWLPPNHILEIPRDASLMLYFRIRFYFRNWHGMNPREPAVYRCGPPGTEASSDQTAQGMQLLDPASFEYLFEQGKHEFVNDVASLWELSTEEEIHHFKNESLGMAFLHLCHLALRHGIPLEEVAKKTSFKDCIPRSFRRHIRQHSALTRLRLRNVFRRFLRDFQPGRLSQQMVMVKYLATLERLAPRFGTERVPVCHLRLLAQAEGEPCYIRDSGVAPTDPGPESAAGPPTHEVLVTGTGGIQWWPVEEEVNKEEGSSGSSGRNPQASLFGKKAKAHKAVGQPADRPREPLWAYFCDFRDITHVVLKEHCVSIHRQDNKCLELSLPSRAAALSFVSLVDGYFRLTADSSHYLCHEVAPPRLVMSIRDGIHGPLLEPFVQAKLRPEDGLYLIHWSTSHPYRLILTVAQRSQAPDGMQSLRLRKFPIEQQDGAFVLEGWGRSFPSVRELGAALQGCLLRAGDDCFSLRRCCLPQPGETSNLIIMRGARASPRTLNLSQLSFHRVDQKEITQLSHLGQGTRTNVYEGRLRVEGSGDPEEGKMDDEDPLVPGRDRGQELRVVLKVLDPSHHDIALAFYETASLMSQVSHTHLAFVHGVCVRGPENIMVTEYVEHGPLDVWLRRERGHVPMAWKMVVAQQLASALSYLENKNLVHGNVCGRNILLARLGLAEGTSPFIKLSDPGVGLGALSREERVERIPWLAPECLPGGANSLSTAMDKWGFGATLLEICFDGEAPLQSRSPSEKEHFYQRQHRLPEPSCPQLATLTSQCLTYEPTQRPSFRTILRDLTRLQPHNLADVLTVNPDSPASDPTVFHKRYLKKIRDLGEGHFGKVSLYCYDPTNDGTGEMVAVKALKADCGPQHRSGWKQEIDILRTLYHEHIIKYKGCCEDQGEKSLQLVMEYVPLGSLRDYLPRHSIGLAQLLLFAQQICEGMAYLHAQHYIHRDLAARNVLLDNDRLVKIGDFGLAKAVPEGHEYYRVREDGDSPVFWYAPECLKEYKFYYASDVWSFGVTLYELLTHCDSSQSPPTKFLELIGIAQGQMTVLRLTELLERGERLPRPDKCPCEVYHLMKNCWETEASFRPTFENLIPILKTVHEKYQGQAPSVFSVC

The term IC50 denotes the concentration at which inhibition is half-maximal. High values mean lower potency, low ones higher potency. As for `CC(=O)Nc1cc(Nc2cc(C)nc(C(C)(F)F)n2)c(-c2cc(C#N)ccn2)cn1` [Example 631, N-(4-cyanO4′-((2-(1,1-difluoroethyl)-6-methylpyrimidin-4-yl)amino)-[2,3′-bipyridin]-6′-yl)acetamide], the IC50 is 10 to 100 nM on Tyk2 (MSD) and at most 10 nM on JH2 domain of human Tyk2 (setting [1]).
As for `CC(=O)Nc1cc(Nc2cccc(C(C)(F)F)n2)c(-c2ccn(C)n2)cn1` [Example 147, N-(4-((6-(1,1-difluoroethyl)pyridin-2-yl)amino)-5-(1-methyl-1H-pyrazol-3-yl)pyridin-2-yl)acetamide], the IC50 against Tyk2 (MSD) and at JH2 domain of human Tyk2 (setting [2]) was at most 10 nM each time.
On to `CC(=O)Nc1cc(Nc2cc(C)nc(C(C)(F)F)n2)c(OCc2cocn2)cn1` [Example 505, N-(4-((2-(1,1-difluoroethyl)-6-methylpyrimidin-4-yl)amino)-5-(oxazol-4-ylmethoxy)pyridin-2-yl)acetamide], for which the values for the IC50 against Tyk2 (MSD) and at JH2 domain of human Tyk2 (setting [1]) were 10 to 100 nM and at most 10 nM, respectively.
For the compound `CC(=O)Nc1cc(Nc2cc(C)nc(C(C)(F)F)n2)c(-c2cc(CN3CCN(C)CC3)n(C)n2)cn1` [Example 804, N-(4-((2-(1,1-difluoroethyl)-6-methylpyrimidin-4-yl)amino)-5-(1-methyl-5-((4-methylpiperazin-1-yl)methyl)-1H-pyrazol-3-yl)pyridin-2-yl)acetamide], the IC50 against Tyk2 and on JH2 domain of human Tyk2 (setting [3]) was at most 10 nM each time.
Consider `CC(=O)Nc1cc(Nc2cc(C)nc(C(C)(F)F)n2)c(-c2cc(N(C)C)ccn2)cn1` [Example 627, N-(4′-((2-(1,1-difluoroethyl)-6-methylpyrimidin-4-yl)amino)-4-(dimethylamino)-[2,3′-bipyridin]-6′-yl)acetamide], for which the IC50 against Tyk2 (MSD) is at least 1000 nM; at JH2 domain of human Tyk2 (setting [1]), 100 to 1000 nM.
As to `CCOc1cnc(NC(C)=O)cc1Nc1cc(C)nc(C(F)(F)CC)n1` [Example 516, N-(4-((2-(1,1-difluoropropyl)-6-methylpyrimidin-4-yl)amino)-5-ethoxypyridin-2-yl)acetamide], the 50% inhibitory concentration (IC50) against Tyk2 (MSD) was 100 to 1000 nM; on JH2 domain of human Tyk2 (setting [1]), at most 10 nM.
In the same order, the values of `CC(=O)Nc1cc(Nc2cc(C)nc(C(C)(F)F)n2)c(OCC2(C)CCOC2)cn1` (stereo not shown) [Example 431, N-(4-((2-(1,1-difluoroethyl)-6-methylpyrimidin-4-yl)amino)-5-((3-methyltetrahydrofuran-3-yl)methoxy)pyridin-2-yl)acetamide] are 100 to 1000 nM and at most 10 nM.
With `CC(=O)Nc1cc(Nc2cc(C)nc(C(C)(F)F)n2)c(OCCc2cccnc2F)cn1` [Example 328, N-(4-((2-(1,1-difluoroethyl)-6-methylpyrimidin-4-yl)amino)-5-(2-(2-fluoropyridin-3-yl)ethoxy)pyridin-2-yl)acetamide], the IC50 against Tyk2 (MSD) and on JH2 domain of human Tyk2 (setting [2]) was at most 10 nM each time.
Take `CCc1cc(Nc2cc(NC(C)=O)ncc2-c2nnc(C)o2)nc(C(C)(F)F)n1` [Example 168, N-(4-((2-(1,1-difluoroethyl)-6-ethylpyrimidin-4-yl)amino)-5-(5-methyl-1,3,4-oxadiazol-2-yl)pyridin-2-yl)acetamide]: the concentration for half-maximal inhibition (IC50) at Tyk2 (MSD) is 10 to 100 nM; at JH2 domain of human Tyk2 (setting [2]), at most 10 nM.
With `CCOc1cnc(NC(C)=O)cc1Nc1cc(C(C)C)nc(C(C)(F)F)n1` [Example 51, N-(4-((2-(1,1-difluoroethyl)-6-isopropylpyrimidin-4-yl)amino)-5-ethoxypyridin-2-yl)acetamide], the figures for the half-inhibitory concentration (IC50) against Tyk2 (MSD) and on JH2 domain of human Tyk2 (setting [2]) were 10 to 100 nM and at most 10 nM, respectively.
On to `COc1nccc(-c2cnc(NC(C)=O)cc2Nc2cc(C)nc(C(C)(F)F)n2)n1` [Example 179, N-(4-((2-(1,1-difluoroethyl)-6-methylpyrimidin-4-yl)amino)-5-(2-methoxypyrimidin-4-yl)pyridin-2-yl)acetamide], for which the IC50 at Tyk2 (MSD) and on JH2 domain of human Tyk2 (setting [2]) was at most 10 nM throughout.
In the case of `CC(=O)Nc1cc(Nc2cc(C)nc(C(C)(C)F)n2)c(-c2cn3c(n2)COCC3)cn1` [Example 531, N-(5-(5,6-dihydrO8H-imidazo[2,1-c][1,4]oxazin-2-yl)-4-((2-(2-fluoropropan-2-yl)-6-methylpyrimidin-4-yl)amino)pyridin-2-yl)acetamide], the 50% inhibitory concentration (IC50) against Tyk2 (MSD) and on JH2 domain of human Tyk2 (setting [1]) was at most 10 nM in each case.
`CC(=O)Nc1cc(Nc2cc(C)nc(C34CCC(C3)OC4)n2)c(-c2ccn(C)n2)cn1` (stereo not shown) [Example 557, N-(4-((2-(2-oxabicyclo[2.2.1]heptan-4-yl)-6-methylpyrimidin-4-yl)amino)-5-(1-methyl-1H-pyrazol-3-yl)pyridin-2-yl)acetamide]: the IC50 against Tyk2 (MSD) is 10 to 100 nM; on JH2 domain of human Tyk2 (setting [1]), at most 10 nM.
`CC(=O)Nc1cc(Nc2cc(C)nc(C(C)(F)F)n2)c(OCc2ccccc2)cn1` [Example 30, N-(5-(benzyloxy)-4-((2-(1,1-difluoroethyl)-6-methylpyrimidin-4-yl)amino)pyridin-2-yl)acetamide]: the IC50 on Tyk2 (MSD) and on JH2 domain of human Tyk2 (setting [2]) was at most 10 nM throughout.
Turning to `CC(=O)Nc1cc(Nc2ccnc(C(C)(F)F)n2)c(-c2cncc(OC(F)F)n2)cn1` [Example 689, N-(4-((2-(1,1-difluoroethyl)pyrimidin-4-yl)amino)-5-(6-(difluoromethoxy)pyrazin-2-yl)pyridin-2-yl)acetamide], the IC50 on Tyk2 (MSD) is at least 1000 nM; at JH2 domain of human Tyk2 (setting [1]) it was 10 to 100 nM.
`CC(=O)Nc1cc(Nc2ccnc(C(C)(F)F)n2)c(-c2ccn3nccc3n2)cn1` [Example 539, N-(4-((2-(1,1-difluoroethyl)pyrimidin-4-yl)amino)-5-(pyrazolo[1,5-a]pyrimidin-5-yl)pyridin-2-yl)acetamide]: the IC50 against Tyk2 (MSD) and on JH2 domain of human Tyk2 (setting [1]) was at most 10 nM each time.
As for `CC(=O)Nc1cc(Nc2cc(C)nc(C(C)(F)F)n2)c(OCc2cnc(C)o2)cn1` [Example 320, N-(4-((2-(1,1-difluoroethyl)-6-methylpyrimidin-4-yl)amino)-5-((2-methyloxazol-5-yl)methoxy)pyridin-2-yl)acetamide], the IC50 against Tyk2 (MSD) is 10 to 100 nM; on JH2 domain of human Tyk2 (setting [2]) it was at most 10 nM.
With `CC(=O)Nc1cc(Nc2cc(C)nc(C(C)(F)F)n2)c(OCCF)cn1` [Example 404, N-(4-((2-(1,1-difluoroethyl)-6-methylpyrimidin-4-yl)amino)-5-(2-fluoroethoxy)pyridin-2-yl)acetamide], the values for the IC50 at Tyk2 (MSD) and on JH2 domain of human Tyk2 (setting [1]) were 10 to 100 nM and at most 10 nM, respectively.
In the same order, the values of `COc1cc(-c2cnc(NC(C)=O)cc2Nc2ccnc(C(C)(F)F)n2)ncc1F` [Example 699, N-(4′-((2-(1,1-difluoroethyl)pyrimidin-4-yl)amino)-5-fluorO4-methoxy-[2,3′-bipyridin]-6′-yl)acetamide] are at least 1000 nM and 10 to 100 nM.
For `COCCn1cnc(-c2cnc(NC(C)=O)cc2Nc2cc(C)nc(C(C)(F)F)n2)n1` [Example 263, N-(4-((2-(1,1-difluoroethyl)-6-methylpyrimidin-4-yl)amino)-5-(1-(2-methoxyethyl)-1H-1,2,4-triazol-3-yl)pyridin-2-yl)acetamide], the IC50 on Tyk2 (MSD) was 100 to 1000 nM; at JH2 domain of human Tyk2 (setting [2]) it was at most 10 nM.
In the same order, the values of `CC(=O)Nc1cc(Nc2cc(OC3CC3)nc(C(C)(F)F)n2)c(OC(F)(F)F)cn1` [Example 93, N-(4-((6-cyclopropoxy-2-(1,1-difluoroethyl)pyrimidin-4-yl)amino)-5-(trifluoromethoxy)pyridin-2-yl)acetamide] are 100 to 1000 nM and at most 10 nM.
`CC(=O)Nc1cc(Nc2cc(C)nc(C(C)(F)F)n2)c(-c2ncc(CN3CCN(C)CC3)s2)cn1` [Example 783, N-(4-((2-(1,1-difluoroethyl)-6-methylpyrimidin-4-yl)amino)-5-(5-((4-methylpiperazin-1-yl)methyl)thiazol-2-yl)pyridin-2-yl)acetamide]: the IC50 on Tyk2 and at JH2 domain of human Tyk2 (setting [3]) was at most 10 nM throughout.
Regarding `CC(=O)Nc1cc(Nc2cc(C)nc(C(C)(F)F)n2)c(OCc2ccsn2)cn1` [Example 323, N-(4-((2-(1,1-difluoroethyl)-6-methylpyrimidin-4-yl)amino)-5-(isothiazol-3-ylmethoxy)pyridin-2-yl)acetamide], the IC50 against Tyk2 (MSD) and on JH2 domain of human Tyk2 (setting [2]) was at most 10 nM throughout.
Regarding `CCOc1cc(-c2cnc(NC(C)=O)cc2Nc2cc(C)nc(C(C)(F)F)n2)ncn1` [Example 243, N-(4-((2-(1,1-difluoroethyl)-6-methylpyrimidin-4-yl)amino)-5-(6-ethoxypyrimidin-4-yl)pyridin-2-yl)acetamide], the 50% inhibitory concentration (IC50) was 10 to 100 nM at Tyk2 (MSD) and at most 10 nM at JH2 domain of human Tyk2 (setting [2]).
On to `CCc1cc(Nc2cc(NC(C)=O)ncc2OCCOC(F)F)nc(C(C)(F)F)n1` [Example 68, N-(4-((2-(1,1-difluoroethyl)-6-ethylpyrimidin-4-yl)amino)-5-(2-(difluoromethoxy)ethoxy)pyridin-2-yl)acetamide], for which the half-maximal inhibitory concentration (IC50) on Tyk2 (MSD) and on JH2 domain of human Tyk2 (setting [2]) was at most 10 nM each time.
For the compound `COc1nccc(-c2cnc(NC(C)=O)cc2Nc2cc(C)nc(C(C)(C)F)n2)n1` [Example 181, N-(4-((2-(2-fluoropropan-2-yl)-6-methylpyrimidin-4-yl)amino)-5-(2-methoxypyrimidin-4-yl)pyridin-2-yl)acetamide], the IC50 at Tyk2 (MSD) and on JH2 domain of human Tyk2 (setting [2]) was at most 10 nM each time.
With `CC(=O)Nc1cc(Nc2cc(C)nc(C(C)(F)F)n2)c(-c2cc(C)ncn2)cn1` [Example 197, N-(4-((2-(1,1-difluoroethyl)-6-methylpyrimidin-4-yl)amino)-5-(6-methylpyrimidin-4-yl)pyridin-2-yl)acetamide], the IC50 at Tyk2 (MSD) and at JH2 domain of human Tyk2 (setting [2]) was at most 10 nM throughout.
As to `COc1cc(COc2cnc(NC(C)=O)cc2Nc2cc(C)nc(C(C)(F)F)n2)ncn1` [Example 346, N-(4-((2-(1,1-difluoroethyl)-6-methylpyrimidin-4-yl)amino)-5-((6-methoxypyrimidin-4-yl)methoxy)pyridin-2-yl)acetamide], the figures for the IC50 against Tyk2 (MSD) and on JH2 domain of human Tyk2 (setting [2]) were 10 to 100 nM and at most 10 nM, respectively.
Take `CC(=O)Nc1cc(Nc2cc(C)nc(C(C)(F)F)n2)c(OCC2(C(F)(F)F)CC2)cn1` [Example 57, N-(4-((2-(1,1-difluoroethyl)-6-methylpyrimidin-4-yl)amino)-5-((1-(trifluoromethyl)cyclopropyl)methoxy)pyridin-2-yl)acetamide]: the concentration for half-maximal inhibition (IC50) is 10 to 100 nM against Tyk2 (MSD) and at most 10 nM on JH2 domain of human Tyk2 (setting [2]).
